Assay results taken from US8653102B2, “Substituted 2-oxo- and 2-thioxo-dihydroquinoline-3-carboxamides as KCNQ2/3 modulators” (Gruenenthal GmbH, priority 2010, dated 2014).

Columns and labels:
KCNQ2/3 channels = target: T1, KCNQ2/3 channels (Homo sapiens, UniProt O43525+O43526); assay: Fluorescence assay using a voltage sensitive dye (fluorimetry); format: cell-based; conditions: CHO-K1 cells expressing KCNQ2/3 channels; for Emax: relative to retigabine (RTG) = 100%, read-out: Fluorimetry % efficacy (RTG = 100%)
T1 construct: expressed in transfected cells; host or cells: CHO-K1 cells kept under selection antibiotics
Experimental: Pharmacological Experiments Method I. Fluorescence Assay Using a Voltage Sensitive Dye (Fluorimetry)
[…] CHO-K1 cells expressing KCNQ2/3 channels are cultivated adherently at 37° C., 5% CO2 and 95% humidity in cell culture bottles (e.g. 80 cm^2 TC flasks, Nunc) with DMEM-high glucose (Sigma Aldrich, D7777) including 10% FCS (PAN Biotech, e.g. 3302-P270521) or alternatively MEM Alpha Medium (1×, liquid, Invitrogen, #22571), 10% fetal calf serum (FCS) (Invitrogen, #10270-106, heat-inactivated) and the necessary selection antibiotics.
Before being sown out for the measurements, the cells are washed with 1×DPBS buffer Ca^2+/Mg^2+-free (e.g. Invitrogen, #14190-094) and detached from the bottom of the culture vessel by using Accutase (PAA Laboratories, #L11-007) (incubation with Accutase for 15 min at 37° C.). The cell number is determined using a CASY™ cell counter (TCC, Schärfe System). Depending on the optimal density for each individual cell line, 20,000-30,000 cells/well/100 μl are seeded onto 96-well Corning™ CellBIND™ assay plates (Flat Clear Bottom Black Polystyrene Microplates, #3340). Freshly seeded cells are then left to settle for one hour at room temperature, followed by incubation for 24 hours at 37° C., 5% CO2 and 95% humidity.
The voltage-sensitive fluorescent dye from the Membrane Potential Assay Kit (Red™ Bulk format part R8123 for FLIPR, MDS Analytical Technologies™) is prepared by dissolving the contents of one vessel Membrane Potential Assay Kit Red Component A in 200 ml of extracellular buffer (ES buffer, 120 mM NaCl, 1 mM KCl, 10 mM HEPES, 2 mM CaCl2, 2 mM MgCl2, 10 mM glucose; pH 7.4). After removal of the nutrient medium, the cells are washed once with 200 μl of ES buffer, then loaded for 45 min at room temperature in 100 μl of dye solution in the dark.
Fluorescence measurements are carried out in a BMG Labtech FLUOstar™, BMG Labtech NOVOstar™ or BMG Labtech POLARstar™ instrument (525 nm excitation, 560 nm emission, Bottom Read mode). After incubation with the dye, 50 μl of the test substances in the desired concentrations, or 50 μl of ES buffer for control purposes, are applied to the wells of the assay plate and incubated for 30 min at room temperature while being shielded from light. The fluorescence intensity of the dye is then measured for 5 min and the fluorescence value F1 of each well is thus determined at a given, constant time. 15 μl of a KCl solution are then added to each well (final concentration of potassium ions 92 mM). The change in fluorescence intensity is subsequently monitored until all the relevant values have been obtained (mainly 5-30 min). At a given time post KCl application, a fluorescence value F2 is determined, in this case at the time of the fluorescence peak.
For calculation, the fluorescence intensity F2 is corrected for the fluorescence intensity F1, and the activity (ΔF/F) of the target compound on the potassium channel is determined as follows:
In order to determine whether a substance has agonistic activity,
A substance has an agonistic activity on the potassium channel if
[formula] increases dose dependently.
Calculations of EC50 and IC50 values are carried out with the aid of ‘Prism v4.0’ software (GraphPad Software™).

rat = assay: Low-intensity tail flick test (rat); format: in vivo; conditions: for ED50: po, peroral, at time of maximum efficacy
Experimental: Method II. Low-Intensity Tail Flick Test (Rat)
In the low-intensity tail flick test, the determination of the antinociceptive effect of the compounds according to the invention towards an acute noxious thermal stimulus is carried out by measuring the withdrawal reflex of the rat tail (tail flick) in response to a radiant heat beam (analgesia meter; model 2011 of the company Rhema Labortechnik, Hofheim, Germany) according to the method described by D'Amour and Smith (J. Pharm. Exp. Ther. 72, 74 79 (1941). To this end, the rats were placed in a plexiglas restrainer, and a low-intensity radiant heat beam (48° C.) was focused onto the dorsal surface of the tail root. The stimulus intensity was adjusted to result in a mean pre-drug control withdrawal latency of about 7 s, thus also allowing a supraspinal modulation of the spinally mediated acute nociceptive reflex. A cutoff time of 30 s was applied to avoid tissue damage. Male Sprague-Dawley rats (Janvier, Le Genest St. Isle, Frankreich) with weights of 200-250 g were used. 10 rats were used per group. Before administration of a compound according to the invention, the animals were pre-tested twice in the course of five minutes and the mean of these measurements was calculated as the pre-test mean. The antinociceptive effect was determined at 20, 40 and 60 min after peroral compound administration. The antinociceptive effect was calculated based on the increase in the tail withdrawal latency according to the following formula and is expressed as percentage of the maximum possible effect (MPE [%]): MPE=[(T1−T0)/(T2−T0)]*100
In this, T0 is the control latency time before and T1 the latency time after administration of the compound, T2 is the cutoff time and MPE is the maximum possible effect. Employing variant analysis (repeated measures ANOVA) allowed testing of statistically significant differences between the compounds according to the invention and the vehicle group. The significance level was set to p≦0.05. To determine the dose dependency, the particular compound according to the invention was administered in 3-5 logarithmically increasing doses, including a threshold dose and a maximum effective dose, and the ED50 values were determined with the aid of regression analysis. The ED50 calculation was performed at the time of maximum efficacy (usually 20 min after administration of the compounds).

EC50 (KCNQ2/3 channels) | Emax (KCNQ2/3 channels) | Structure (SMILES) | ED50 (rat) | Low intensity tail flick, rat, peroral, MPE (dose) (rat; dose 10.00 mg/kg) | Low intensity tail flick, rat, peroral, MPE (dose) (rat; dose 3.16 mg/kg)
245 nM | 177% | Cc1c(C(=O)NCc2cccc(F)c2)c(=O)n(C)c2cc(C(F)(F)F)ccc12 [Example 1, N-[(3-fluorophenyl)-methyl]-1,4-dimethyl-2-oxo-7-(trifluoromethyl)-1H-quinoline-3-carboxylic acid amide] | 2.3 mg/kg | – | –
124 nM | 101% | Cc1c(C(=O)NCc2cccc(F)c2)c(=S)n(C)c2cc(C(F)(F)F)ccc12 [Example 3, N-[(3-fluorophenyl)-methyl]-1,4-dimethyl-2-thioxo-7-(trifluoromethyl)-1H-quinoline-3-carboxylic acid amide] | – | 24 (10.00) % | –
850 nM | 195% | COCCn1c(=O)c(C(=O)NCc2cccc(F)c2)c(C)c2ccc(C(F)(F)F)cc21 [Example 4, N-[(3-fluorophenyl)-methyl]-1-(2-methoxy-ethyl)-4-methyl-2-oxo-7-(trifluoromethyl)-1H-quinoline-3-carboxylic acid amide] | 2.8 mg/kg | – | –
189 nM | 169% | Cc1c(C(=O)NCc2ccc(F)cc2)c(=O)n(C)c2cc(C(F)(F)F)ccc12 [Example 6, N-[(4-fluorophenyl)-methyl]-1,4-dimethyl-2-oxo-7-(trifluoromethyl)-1H-quinoline-3-carboxylic acid amide] | 0.6 mg/kg | – | –
598 nM | 146% | COCCn1c(=O)c(C(=O)NCc2ccc(F)cc2)c(C)c2ccc(C(F)(F)F)cc21 [Example 7, N-[(4-fluorophenyl)-methyl]-1-(2-methoxy-ethyl)-4-methyl-2-oxo-7-(trifluoromethyl)-1H-quinoline-3-carboxylic acid amide] | – | – | 47 (3.16) %
3140 nM | 105% | Cc1c(C(=O)NCc2cccc(F)c2)c(=O)n(C)c2cc(F)ccc12 [Example 34, 7-fluoro-N-[(3-fluorophenyl)-methyl]-1,4-dimethyl-2-oxo-1H-quinoline-3-carboxylic acid amide] | – | – | –
114 nM | 118% | COCC(C)n1c(=O)c(C(=O)NCc2cccc(F)c2)c(C)c2ccc(C(F)(F)F)cc21 (stereo not drawn) [Example 35, N-[(3-fluorophenyl)-methyl]-1-(2-methoxy-1-methyl-ethyl)-4-methyl-2-oxo-7-(trifluoromethyl)-1H-quinoline-3-carboxylic acid amide] | – | – | –
126 nM | 99% | Cc1c(C(=O)NCc2ccc(F)cc2)c(=S)n(C)c2cc(C(F)(F)F)ccc12 [Example 36, N-[(4-fluorophenyl)-methyl]-1,4-dimethyl-2-thioxo-7-(trifluoromethyl)-1H-quinoline-3-carboxylic acid amide] | – | – | –
729 nM | 139% | Cc1c(C(=O)NCc2cccc(F)c2)c(=O)n(C)c2cc(Cl)ccc12 [Example 37, 7-chloro-N-[(3-fluorophenyl)-methyl]-1,4-dimethyl-2-oxo-1H-quinoline-3-carboxylic acid amide] | – | – | –
1830 nM | 160% | Cc1c(C(=O)NCc2cccc(F)c2)c(=O)n(CCO)c2cc(C(F)(F)F)ccc12 [Example 38, N-[(3-fluorophenyl)-methyl]-1-(2-hydroxy-ethyl)-4-methyl-2-oxo-7-(trifluoromethyl)-1H-quinoline-3-carboxylic acid amide] | – | – | –
– | 43% | CCOCCn1c(=O)c(C(=O)NCc2cccc(F)c2)c(C)c2ccc(C(F)(F)F)cc21 [Example 39, 1-(2-ethoxy-ethyl)-N-[(3-fluorophenyl)-methyl]-4-methyl-2-oxo-7-(trifluoromethyl)-1H-quinoline-3-carboxylic acid amide] | – | – | –
75 nM | 145% | Cc1c(C(=O)NCc2cccc(F)c2)c(=O)n(C(C)C)c2cc(C(F)(F)F)ccc12 [Example 40, N-[(3-fluorophenyl)-methyl]-1-isopropyl-4-methyl-2-oxo-7-(trifluoromethyl)-1H-quinoline-3-carboxylic acid amide] | – | – | –
4990 nM | 103% | Cn1c(=O)c(C(=O)NCc2cccc(F)c2)c(C(F)(F)F)c2ccccc21 [Example 42, N-[(3-fluorophenyl)-methyl]-1-methyl-2-oxo-4-(trifluoromethyl)-1H-quinoline-3-carboxylic acid amide] | – | – | –
1680 nM | 100% | COC(C)Cn1c(=O)c(C(=O)NCc2cccc(F)c2)c(C)c2ccc(C(F)(F)F)cc21 (stereo not drawn) [Example 43, N-[(3-fluorophenyl)-methyl]-1-(2-methoxy-propyl)-4-methyl-2-oxo-7-(trifluoromethyl)-1H-quinoline-3-carboxylic acid amide] | – | – | –
– | 36% | Cc1c(C(=O)NCc2cccc(F)c2)c(=O)n(C2CCOCC2)c2cc(C(F)(F)F)ccc12 [Example 44, N-[(3-fluorophenyl)-methyl]-4-methyl-2-oxo-1-tetrahydro-pyran-4-yl-7-(trifluoromethyl)-1H-quinoline-3-carboxylic acid amide] | – | – | –
215 nM | 190% | COc1c(C(=O)NCc2cccc(F)c2)c(=O)n(C)c2cc(C(F)(F)F)ccc12 [Example 45, N-[(3-fluorophenyl)-methyl]-4-methoxy-1-methyl-2-oxo-7-(trifluoromethyl)-1H-quinoline-3-carboxylic acid amide] | – | – | –

Structure (SMILES) | EC50 (KCNQ2/3 channels) | Emax (KCNQ2/3 channels) | ED50 (rat) | Low intensity tail flick, rat, peroral, MPE (dose) (rat; dose 10.00 mg/kg) | Low intensity tail flick, rat, peroral, MPE (dose) (rat; dose 3.16 mg/kg)
CCCCCn1c(=O)c(C(=O)NCc2cccc(F)c2)c(C)c2ccc(C(F)(F)F)cc21 [Example 41, N-[(3-fluorophenyl)-methyl]-4-methyl-2-oxo-1-pentyl-7-(trifluoromethyl)-1H-quinoline-3-carboxylic acid amide] | – | 18% | – | – | –
